Experimental data taken from ChEMBL document CHEMBL4507281, “Data for DCP probe BI-4394” (2021).

Key:
[1] = test system: Tyrosine-protein kinase ABL1 (Homo sapiens), P00519 [F317I]; details: Compound concentration 100.0 nM
[2] = test system: Tyrosine-protein kinase ABL1 (Homo sapiens), P00519 [F317L]; details: Compound concentration 100.0 nM
[3] = molecular target: Aurora kinase C (Homo sapiens) (UniProt Q9UQB9); details: Compound concentration 100.0 nM
[4] = molecular target: Peripheral plasma membrane protein CASK (Homo sapiens) (UniProt O14936); details: Compound concentration 100.0 nM
Sequence of Peripheral plasma membrane protein CASK (Homo sapiens) (O14936 whole entry): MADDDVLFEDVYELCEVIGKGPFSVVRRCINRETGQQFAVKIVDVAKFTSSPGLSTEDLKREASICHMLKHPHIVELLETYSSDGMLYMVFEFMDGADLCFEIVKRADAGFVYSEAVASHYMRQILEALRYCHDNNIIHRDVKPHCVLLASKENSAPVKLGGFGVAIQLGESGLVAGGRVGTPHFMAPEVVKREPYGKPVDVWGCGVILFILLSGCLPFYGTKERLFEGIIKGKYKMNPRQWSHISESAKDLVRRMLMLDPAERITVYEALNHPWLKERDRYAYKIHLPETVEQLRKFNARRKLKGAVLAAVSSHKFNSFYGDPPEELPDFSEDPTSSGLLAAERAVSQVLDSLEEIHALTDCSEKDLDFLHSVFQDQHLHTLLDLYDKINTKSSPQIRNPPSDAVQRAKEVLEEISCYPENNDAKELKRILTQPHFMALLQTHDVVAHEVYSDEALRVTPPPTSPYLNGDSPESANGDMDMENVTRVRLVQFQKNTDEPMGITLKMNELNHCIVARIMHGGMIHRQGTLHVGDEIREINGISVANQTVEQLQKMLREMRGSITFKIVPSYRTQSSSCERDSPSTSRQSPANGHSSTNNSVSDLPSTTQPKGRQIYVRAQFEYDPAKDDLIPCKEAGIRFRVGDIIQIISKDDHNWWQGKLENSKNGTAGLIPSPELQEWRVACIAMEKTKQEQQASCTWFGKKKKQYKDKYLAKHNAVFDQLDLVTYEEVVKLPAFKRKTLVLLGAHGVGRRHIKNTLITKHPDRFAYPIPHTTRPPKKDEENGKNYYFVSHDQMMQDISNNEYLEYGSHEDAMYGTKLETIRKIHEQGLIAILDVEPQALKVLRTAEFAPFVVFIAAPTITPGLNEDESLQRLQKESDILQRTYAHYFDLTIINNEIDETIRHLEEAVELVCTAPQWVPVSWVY

[5] = molecular target: Cyclin-dependent kinase-like 3 (Homo sapiens) (UniProt Q8IVW4); details: Compound concentration 100.0 nM
[6] = molecular target: Macrophage colony-stimulating factor 1 receptor (Homo sapiens) (UniProt P07333); details: Compound concentration 100.0 nM
[7] = molecular target: Casein kinase I isoform alpha-like (Homo sapiens) (UniProt Q8N752); details: Compound concentration 100.0 nM
[8] = molecular target: Serine/threonine-protein kinase 17A (Homo sapiens) (UniProt Q9UEE5); details: Compound concentration 100.0 nM
[9] = molecular target: Serine/threonine-protein kinase 17B (Homo sapiens) (UniProt O94768); details: Compound concentration 100.0 nM
[10] = test system: Epidermal growth factor receptor (Homo sapiens), P00533 [L858R]; details: Compound concentration 100.0 nM
[11] = molecular target: Tyrosine-protein kinase Fer (Homo sapiens) (UniProt P16591); details: Compound concentration 100.0 nM
[12] = test system: Receptor-type tyrosine-protein kinase FLT3 (Homo sapiens), P36888 [UNDEFINED MUTATION]; details: Compound concentration 100.0 nM
[13] = molecular target: Beta-adrenergic receptor kinase 1 (Homo sapiens) (UniProt P25098); details: Compound concentration 100.0 nM
[14] = molecular target: G protein-coupled receptor kinase 3 (Homo sapiens) (UniProt P35626); details: Compound concentration 100.0 nM
[15] = molecular target: Homeodomain-interacting protein kinase 3 (Homo sapiens) (UniProt Q9H422); details: Compound concentration 100.0 nM
[16] = molecular target: Tyrosine-protein kinase JAK1 (Homo sapiens) (UniProt P23458); details: Compound concentration 100.0 nM
[17] = test system: Mast/stem cell growth factor receptor Kit (Homo sapiens), P10721 [L576P]; details: Compound concentration 100.0 nM
[18] = test system: Mast/stem cell growth factor receptor Kit (Homo sapiens), P10721 [V559D]; details: Compound concentration 100.0 nM
[19] = molecular target: Serine/threonine-protein kinase STK11 (Homo sapiens) (UniProt Q15831); details: Compound concentration 100.0 nM
Sequence of Serine/threonine-protein kinase STK11 (Homo sapiens) (Q15831 whole entry): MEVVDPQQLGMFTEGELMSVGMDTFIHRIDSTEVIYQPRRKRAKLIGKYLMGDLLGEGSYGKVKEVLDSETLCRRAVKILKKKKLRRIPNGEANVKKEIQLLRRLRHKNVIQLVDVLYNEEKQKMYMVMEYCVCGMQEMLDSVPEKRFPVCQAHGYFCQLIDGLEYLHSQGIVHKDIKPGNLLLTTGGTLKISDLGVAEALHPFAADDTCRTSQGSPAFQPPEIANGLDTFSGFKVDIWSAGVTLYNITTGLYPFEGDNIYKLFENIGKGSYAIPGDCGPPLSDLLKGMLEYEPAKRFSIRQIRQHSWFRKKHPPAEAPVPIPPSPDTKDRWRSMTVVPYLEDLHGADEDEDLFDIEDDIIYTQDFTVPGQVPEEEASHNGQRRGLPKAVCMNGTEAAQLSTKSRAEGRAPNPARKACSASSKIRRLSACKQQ

[20] = test system: Leucine-rich repeat serine/threonine-protein kinase 2 (Homo sapiens), Q5S007 [G2019S]; details: Compound concentration 100.0 nM
[21] = molecular target: Dual specificity mitogen-activated protein kinase kinase 6 (Homo sapiens) (UniProt P52564); details: Compound concentration 100.0 nM
[22] = test system: Hepatocyte growth factor receptor (Homo sapiens), P08581 [M1250T]; details: Compound concentration 100.0 nM
[23] = test system: Hepatocyte growth factor receptor (Homo sapiens), P08581 [Y1235D]; details: Compound concentration 100.0 nM
[24] = molecular target: Myosin light chain kinase (Homo sapiens) (UniProt Q32MK0); details: Compound concentration 100.0 nM
[25] = molecular target: Mitogen-activated protein kinase kinase kinase 9 (Homo sapiens) (UniProt P80192); details: Compound concentration 100.0 nM
Sequence of Mitogen-activated protein kinase kinase kinase 9 (Homo sapiens) (P80192 whole entry, looked up): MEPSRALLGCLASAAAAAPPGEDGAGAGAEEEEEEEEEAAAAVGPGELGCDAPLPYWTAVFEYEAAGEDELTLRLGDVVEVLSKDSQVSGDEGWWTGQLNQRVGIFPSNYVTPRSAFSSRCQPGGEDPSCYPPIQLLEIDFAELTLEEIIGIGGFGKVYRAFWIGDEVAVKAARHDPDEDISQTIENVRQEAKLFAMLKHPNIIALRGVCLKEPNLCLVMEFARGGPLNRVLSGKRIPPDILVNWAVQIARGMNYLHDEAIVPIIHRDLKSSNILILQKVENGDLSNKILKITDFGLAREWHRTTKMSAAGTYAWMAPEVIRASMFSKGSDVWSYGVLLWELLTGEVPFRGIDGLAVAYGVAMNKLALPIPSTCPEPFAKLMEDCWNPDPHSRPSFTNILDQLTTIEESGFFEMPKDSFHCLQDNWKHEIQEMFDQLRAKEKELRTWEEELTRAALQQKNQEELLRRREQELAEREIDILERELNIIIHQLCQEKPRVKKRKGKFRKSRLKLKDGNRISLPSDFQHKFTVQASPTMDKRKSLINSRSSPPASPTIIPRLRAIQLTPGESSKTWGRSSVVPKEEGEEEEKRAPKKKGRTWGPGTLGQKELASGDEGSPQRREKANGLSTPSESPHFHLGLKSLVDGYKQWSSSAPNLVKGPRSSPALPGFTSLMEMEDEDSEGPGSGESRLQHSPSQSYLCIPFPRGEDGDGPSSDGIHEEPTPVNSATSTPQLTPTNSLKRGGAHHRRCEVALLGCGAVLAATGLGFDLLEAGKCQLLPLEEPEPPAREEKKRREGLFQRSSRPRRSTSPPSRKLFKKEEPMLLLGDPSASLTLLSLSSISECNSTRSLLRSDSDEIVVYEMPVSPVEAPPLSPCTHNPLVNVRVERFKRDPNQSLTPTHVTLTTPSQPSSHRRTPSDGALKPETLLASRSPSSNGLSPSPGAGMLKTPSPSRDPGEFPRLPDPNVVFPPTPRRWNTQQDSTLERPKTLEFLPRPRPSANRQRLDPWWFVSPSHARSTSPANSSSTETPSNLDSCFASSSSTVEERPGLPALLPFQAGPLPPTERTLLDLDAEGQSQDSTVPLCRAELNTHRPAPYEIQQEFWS

[26] = molecular target: Mitogen-activated protein kinase kinase kinase 10 (Homo sapiens) (UniProt Q02779); details: Compound concentration 100.0 nM
[27] = molecular target: Serine/threonine-protein kinase MRCK alpha (Homo sapiens) (UniProt Q5VT25); details: Compound concentration 100.0 nM
[28] = molecular target: Serine/threonine-protein kinase MRCK beta (Homo sapiens) (UniProt Q9Y5S2); details: Compound concentration 100.0 nM
[29] = molecular target: Serine/threonine-protein kinase 4 (Homo sapiens) (UniProt Q13043); details: Compound concentration 100.0 nM
[30] = test system: Phosphatidylinositol 4,5-bisphosphate 3-kinase catalytic subunit alpha isoform (Homo sapiens), P42336 [E545A]; details: Compound concentration 100.0 nM
[31] = test system: Phosphatidylinositol 4,5-bisphosphate 3-kinase catalytic subunit alpha isoform (Homo sapiens), P42336 [H1047L]; details: Compound concentration 100.0 nM
[32] = molecular target: Phosphatidylinositol 4-phosphate 5-kinase type-1 alpha (Homo sapiens) (UniProt Q99755); details: Compound concentration 100.0 nM
[33] = molecular target: Serine/threonine-protein kinase PLK2 (Homo sapiens) (UniProt Q9NYY3); details: Compound concentration 100.0 nM
Sequence of Serine/threonine-protein kinase PLK2 (Homo sapiens) (Q9NYY3 whole entry, looked up): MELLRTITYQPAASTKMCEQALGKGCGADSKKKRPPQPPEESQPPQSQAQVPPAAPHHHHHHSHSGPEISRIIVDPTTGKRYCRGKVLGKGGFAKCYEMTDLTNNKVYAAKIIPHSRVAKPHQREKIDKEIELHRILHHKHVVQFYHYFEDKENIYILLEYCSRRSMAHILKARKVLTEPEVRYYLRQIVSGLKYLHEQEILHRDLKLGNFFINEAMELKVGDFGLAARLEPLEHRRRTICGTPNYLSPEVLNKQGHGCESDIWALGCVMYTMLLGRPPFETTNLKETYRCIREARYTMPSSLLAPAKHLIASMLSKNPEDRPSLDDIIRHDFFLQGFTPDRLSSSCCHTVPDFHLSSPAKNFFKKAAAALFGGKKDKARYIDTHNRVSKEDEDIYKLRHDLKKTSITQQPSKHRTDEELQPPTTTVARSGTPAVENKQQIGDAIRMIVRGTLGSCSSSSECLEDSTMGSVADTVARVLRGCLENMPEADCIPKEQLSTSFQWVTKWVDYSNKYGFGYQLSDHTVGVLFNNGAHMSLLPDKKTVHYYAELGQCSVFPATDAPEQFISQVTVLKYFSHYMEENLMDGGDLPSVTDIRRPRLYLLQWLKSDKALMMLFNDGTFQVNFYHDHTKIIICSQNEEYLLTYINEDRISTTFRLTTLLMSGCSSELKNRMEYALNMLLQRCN

[34] = molecular target: Protein kinase C eta type (Homo sapiens) (UniProt P24723); details: Compound concentration 100.0 nM
[35] = molecular target: Serine/threonine-protein kinase D1 (Homo sapiens) (UniProt Q15139); details: Compound concentration 100.0 nM
Sequence of Serine/threonine-protein kinase D1 (Homo sapiens) (Q15139 whole entry): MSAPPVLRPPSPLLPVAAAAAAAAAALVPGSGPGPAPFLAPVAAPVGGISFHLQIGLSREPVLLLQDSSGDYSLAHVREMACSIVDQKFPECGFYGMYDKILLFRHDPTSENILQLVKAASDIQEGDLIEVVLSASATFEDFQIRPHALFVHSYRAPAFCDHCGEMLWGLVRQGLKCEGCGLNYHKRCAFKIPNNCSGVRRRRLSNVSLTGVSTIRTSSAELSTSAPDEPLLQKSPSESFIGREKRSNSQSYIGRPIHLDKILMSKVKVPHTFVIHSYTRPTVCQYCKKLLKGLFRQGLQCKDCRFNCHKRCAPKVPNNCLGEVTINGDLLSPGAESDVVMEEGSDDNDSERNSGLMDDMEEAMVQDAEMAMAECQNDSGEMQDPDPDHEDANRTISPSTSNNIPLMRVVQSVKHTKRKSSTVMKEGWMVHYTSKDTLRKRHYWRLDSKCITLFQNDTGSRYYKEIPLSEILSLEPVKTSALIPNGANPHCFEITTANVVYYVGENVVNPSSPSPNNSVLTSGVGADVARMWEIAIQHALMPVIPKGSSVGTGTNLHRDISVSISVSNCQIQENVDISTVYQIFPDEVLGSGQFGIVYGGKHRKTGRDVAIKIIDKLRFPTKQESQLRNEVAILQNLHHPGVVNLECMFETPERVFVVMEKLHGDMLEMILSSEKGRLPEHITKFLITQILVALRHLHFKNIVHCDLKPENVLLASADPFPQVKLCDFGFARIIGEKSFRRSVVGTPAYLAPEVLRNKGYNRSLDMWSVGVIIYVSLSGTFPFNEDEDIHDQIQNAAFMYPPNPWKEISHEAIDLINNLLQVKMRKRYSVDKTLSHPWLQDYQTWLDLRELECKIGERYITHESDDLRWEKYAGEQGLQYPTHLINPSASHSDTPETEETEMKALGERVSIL

[36] = molecular target: cGMP-dependent protein kinase 1 (Homo sapiens) (UniProt Q13976); details: Compound concentration 100.0 nM
[37] = molecular target: Proto-oncogene tyrosine-protein kinase ROS (Homo sapiens) (UniProt P08922); details: Compound concentration 100.0 nM
[38] = molecular target: Ribosomal protein S6 kinase alpha-4 (Homo sapiens) (UniProt O75676); details: Compound concentration 100.0 nM
[39] = molecular target: TGF-beta receptor type-1 (Homo sapiens) (UniProt P36897); details: Compound concentration 100.0 nM
[40] = molecular target: Mitogen-activated protein kinase kinase kinase 19 (Homo sapiens) (UniProt Q56UN5); details: Compound concentration 100.0 nM
[41] = molecular target: 5-hydroxytryptamine receptor 2A (Homo sapiens) (UniProt P28223); details: Compound concentration 10.0 uM
Sequence of 5-hydroxytryptamine receptor 2A (Homo sapiens) (P28223 whole entry): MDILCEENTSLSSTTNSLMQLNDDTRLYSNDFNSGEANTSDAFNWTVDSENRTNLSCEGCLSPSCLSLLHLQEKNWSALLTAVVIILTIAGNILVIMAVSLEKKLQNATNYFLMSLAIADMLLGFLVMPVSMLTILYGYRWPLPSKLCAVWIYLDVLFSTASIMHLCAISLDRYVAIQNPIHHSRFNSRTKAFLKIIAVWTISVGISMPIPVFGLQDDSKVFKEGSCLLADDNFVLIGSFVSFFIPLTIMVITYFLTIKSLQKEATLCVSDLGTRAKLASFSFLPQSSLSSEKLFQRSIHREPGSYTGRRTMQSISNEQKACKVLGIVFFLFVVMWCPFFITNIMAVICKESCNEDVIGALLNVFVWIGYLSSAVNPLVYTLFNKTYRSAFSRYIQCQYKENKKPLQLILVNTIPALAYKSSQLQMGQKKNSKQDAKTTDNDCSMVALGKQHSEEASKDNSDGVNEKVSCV

[42] = molecular target: 5-hydroxytryptamine receptor 2B (Homo sapiens) (UniProt P41595); details: Compound concentration 10.0 uM
[43] = molecular target: Delta-type opioid receptor (Homo sapiens) (UniProt P41143); details: Compound concentration 10.0 uM
[44] = molecular target: Alpha-1B adrenergic receptor (Homo sapiens) (UniProt P35368); details: Compound concentration 10.0 uM
[45] = molecular target: Muscarinic acetylcholine receptor M3 (Homo sapiens) (UniProt P20309); details: Compound concentration 10.0 uM

Sequence of Aurora kinase C (Homo sapiens) (Q9UQB9 whole entry): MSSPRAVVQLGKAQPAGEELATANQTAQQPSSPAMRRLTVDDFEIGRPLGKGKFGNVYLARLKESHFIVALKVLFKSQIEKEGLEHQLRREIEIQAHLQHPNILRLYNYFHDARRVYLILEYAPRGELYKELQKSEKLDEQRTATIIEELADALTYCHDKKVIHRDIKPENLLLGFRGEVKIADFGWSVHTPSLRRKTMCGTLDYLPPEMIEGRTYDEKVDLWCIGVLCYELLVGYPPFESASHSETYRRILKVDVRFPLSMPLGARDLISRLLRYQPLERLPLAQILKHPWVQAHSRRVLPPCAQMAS

`CCOC(=O)c1cc2cc(-c3cc(C(=O)NCc4ccc(C(=O)O)cc4)nn3C)ccc2[nH]1` [BI 4394] was tested, and the residual activity [1] was 84%, the residual activity [2] was 61% and the residual activity [3] was 100%. It also gave a residual activity [4] of 71%, a residual activity [5] of 0% and a residual activity [6] of 94%. The residual activity [7] was 100%, the residual activity [8] was 97% and the residual activity [9] was 100%. The residual activity [10] was 91%, the residual activity [11] was 100% and the residual activity [12] was 98%. It also gave a residual activity [13] of 100%, a residual activity [14] of 96% and a residual activity [15] of 81%. It also gave a residual activity [16] of 94%, a residual activity [17] of 100% and a residual activity [18] of 100%. The residual activity [19] was 100%, the residual activity [20] was 83% and the residual activity [21] was 100%. It also gave a residual activity [22] of 87%, a residual activity [23] of 86% and a residual activity [24] of 89%. For the same compound, the residual activity [25] was 100%, the residual activity [26] was 70% and the residual activity [27] was 100%. It also gave a residual activity [28] of 88%, a residual activity [29] of 100% and a residual activity [30] of 84%. The residual activity [31] was 100%, the residual activity [32] was 100% and the residual activity [33] was 80%. It also gave a residual activity [34] of 87%, a residual activity [35] of 75% and a residual activity [36] of 91%. For the same compound, the residual activity [37] was 97%, the residual activity [38] was 88% and the residual activity [39] was 100%. It also gave a residual activity [40] of 75%, an inhibition [41] of 19.1% and an inhibition [42] of 8.13%. The inhibition [43] was -9.42%, the inhibition [44] was -1.29% and the inhibition [45] was 4.89%.
Compound `Cn1nc(C(=O)NCc2ccc(C(=O)O)cc2)cc1-c1ccc2[nH]ccc2c1` [BI 4395] has a residual activity [1] of 100%, a residual activity [2] of 87% and a residual activity [3] of 76%. For the same compound, the residual activity [4] was 69%, the residual activity [5] was 100% and the residual activity [6] was 98%. It also gave a residual activity [7] of 94%, a residual activity [8] of 92% and a residual activity [9] of 91%. For the same compound, the residual activity [10] was 100%, the residual activity [11] was 93% and the residual activity [12] was 91%. For the same compound, the residual activity [13] was 98%, the residual activity [14] was 81% and the residual activity [15] was 88%. The residual activity [16] was 84%, the residual activity [17] was 59% and the residual activity [18] was 90%. It also gave a residual activity [19] of 100%, a residual activity [20] of 70% and a residual activity [21] of 100%. It also gave a residual activity [22] of 91%, a residual activity [23] of 100% and a residual activity [24] of 100%. The residual activity [25] was 100%, the residual activity [26] was 100% and the residual activity [27] was 79%. The residual activity [28] was 100%, the residual activity [29] was 80% and the residual activity [30] was 77%. The residual activity [31] was 100%, the residual activity [32] was 63% and the residual activity [33] was 100%. The residual activity [34] was 84%, the residual activity [35] was 95% and the residual activity [36] was 100%. It also gave a residual activity [37] of 74%, a residual activity [38] of 73% and a residual activity [39] of 97%. It also gave a residual activity [40] of 85%, an inhibition [41] of 23.6% and an inhibition [42] of -2.75%. For the same compound, the inhibition [43] was 0.8%, the inhibition [44] was -6.1% and the inhibition [45] was -0.66%.
